Source: patent publication US9023393B2, “Pharmaceutical compositions of adsorbates of amorphous drugs and lipophilic microphase-forming materials” (Bend Research, Inc., priority 2003, dated 2015)
One block for each compound: values may come before it.

How the values were obtained:
Format in all cases: physicochemical
[1] = In vitro dissolution test of Drug 1 compositions in PBS pH 6.5, room temperature, 0.45 μm syringe filter, UV; 50 μg/mL if all drug dissolved
Description: Example 1 consisted of Adsorbate 1 administered in solution with a lipophilic microphase-forming material. At time 0, a 4 mg sample of Adsorbate 1 was added to 40 mL phosphate buffered saline (PBS) at pH 6.5 and 290 mOsm/kg, containing 1 mg/mL of the lipophilic microphase-forming material Cremaphor RH40 (available from BASF of Mount Olive, N.J.). The concentration of drug would have been 50 μg/mL, if all of the drug had dissolved. The test solution was stirred at room temperature in a syringe equipped with a Gelman Acrodisc 13 CR 0.45 μm PTFE filter. At each sample time, 1 to 2 mL test solution was pushed through the filter and analyzed using UV to determine the concentration of Drug 1 in solution. Samples were collected at 0.5, 1, 2, 3, 5, 10, 15, 20, 30, 45, 60, 90, 120, 150, 250 and 1200 minutes.
(§1) Control 1 consisted of Adsorbate 1 administered into PBS without the lipophilic microphase-forming material, and a sufficient amount of adsorbate was added so that the concentration of drug would have been 50 μg/mL, if all of the drug had dissolved. An in vitro dissolution test was performed with Control 1 using the procedures outlined for Example 1 and the results are shown in Table 1.
Control 2 consisted of crystalline Drug 1 administered into PBS containing 1 mg/mL of the lipophilic microphase-forming material Cremophor RH40, and a sufficient amount of Drug 1 was added so that the concentration would have been 50 μg/mL, if all of the drug had dissolved. An in vitro dissolution test was performed with Control 2 using the procedures outlined for Example 1 and the results are shown in Table 1.
as §1, with “Control 3” for “Control 1”, “of crystalline Drug” for “of Adsorbate”, “of crystalline Drug 1” for “of adsorbate”
Example 2 consisted of Adsorbate 1 administered in solution with a different lipophilic microphase-forming material. At time 0, a 4 mg sample of Adsorbate 1 was added to 40 mL phosphate buffered saline (PBS) at pH 6.5 and 290 mOsm/kg, containing 1 mg/mL of 5/2 (wt/wt) Cremaphor RH40/Capmul MCM (available from Abitec of Janesville, Wis.); the concentration of drug would have been 50 μg/mL, if all of the drug had dissolved. The test solution was stirred at room temperature in a syringe equipped with a Gelman Acrodisc 13 CR 0.45 μm PTFE filter, as described for Example 1. Samples were collected and analyzed using UV to determine the concentration of Drug 1 in solution.
Control 4 consisted of crystalline Drug 1 administered into PBS containing 5/2 (wt/wt) Cremophor RH40/Capmul MCM, and a sufficient amount of Drug 1 was added so that the concentration would have been 50 μg/mL, if all of the drug had dissolved.

[2] = In vitro dissolution test of Drug 2 compositions in PBS pH 6.5, room temperature, 0.45 μm syringe filter, UV; 50 μg/mL if all drug dissolved
Description: Example 3 consisted of Adsorbate 2 administered into solution with a lipophilic microphase-forming material. At time 0, a 6.656 mg sample of Adsorbate 2 was added to 40 mL of phosphate buffered saline (PBS) at pH 6.5 and 290 mOsm/kg, containing 1 mg/mL of PEG 6000 distearate (the concentration of drug would have been 50 μg/mL, if all of the drug had dissolved). The test solution was stirred at room temperature in a syringe equipped with a Gelman Acrodisc 13 CR 0.45 μm PTFE filter, as described for Example 1. Samples were collected and analyzed using UV to determine the concentration of Drug 2 in solution.
Control 5 consisted of Adsorbate 2 administered into PBS without the lipophilic microphase-forming material, and a sufficient amount of sample was added so that the concentration of drug would have been 50 μg/mL, if all of the drug had dissolved.
Control 6 consisted of crystalline Drug 2 administered into PBS containing PEG 6000 Distearate, and a sufficient amount of Drug 2 was added so that the concentration would have been 50 μg/mL, if all of the drug had dissolved.
Control 7 consisted of crystalline Drug 2 administered into PBS without the lipophilic microphase-forming material, and a sufficient amount of sample was added so that the concentration of drug would have been 50 μg/mL, if all of the drug had dissolved.

[3] = In vitro dissolution test of Drug 3 compositions (Example 4 in MOPS buffer pH 7.4, controls given as PBS), room temperature, 0.45 μm syringe filter, UV; 50 μg/mL if all drug dissolved
Description: Example 4 consisted of Adsorbate 3 administered into solution with a lipophilic microphase-forming material. At time 0, an 8.02 mg sample of Adsorbate 3 was added to 40 ml of 50 mM 3-(4-morpholino propane sulfonic acid) sodium salt (MOPS) buffer at pH 7.4, containing 5 mg/mL of Tween 80 (available from ICI Americas Inc); the concentration of drug would have been 50 μg/mL, if all of the drug had dissolved. The test solution was stirred at room temperature in a syringe equipped with a Gelman Acrodisc 13 CR 0.45 μm PTFE filter, as described for Example 1. Samples were collected and analyzed using UV to determine the concentration of Drug 3 in solution.
Control 8 consisted of Adsorbate 3 administered into PBS without the lipophilic microphase-forming material, and a sufficient amount of sample was added so that the concentration of drug would have been 50 μg/mL, if all of the drug had dissolved.
Control 9 consisted of crystalline Drug 3 administered into PBS containing Tween 80, and a sufficient amount of Drug 3 was added so that the concentration would have been 50 μg/mL, if all of the drug had dissolved.
Control 10 consisted of crystalline Drug 3 administered into PBS without the lipophilic microphase-forming material, and a sufficient amount of sample was added so that the concentration of drug would have been 50 μg/mL, if all of the drug had dissolved.

AUC90 ([1]; Drug 1, area under the aqueous concentration versus time curve after 90 minutes): <45 µg·min/mL
AUC ([1]; Drug 1, time 0 min): 0 µg·min/mL
AUC ([1]; Drug 1, time 1 min): <1 µg·min/mL
AUC ([1]; Drug 1, time 3 min): <2 µg·min/mL
AUC ([1]; Drug 1, time 5 min): <3 µg·min/mL
AUC ([1]; Drug 1, time 10 min): <5 µg·min/mL
AUC ([1]; Drug 1, time 15 min): <8 µg·min/mL
AUC ([1]; Drug 1, time 20 min): <10 µg·min/mL
AUC ([1]; Drug 1, time 30 min): <15 µg·min/mL
AUC ([1]; Drug 1, time 45 min): <23 µg·min/mL
AUC ([1]; Drug 1, time 60 min): <30 µg·min/mL
AUC ([1]; Drug 1, time 90 min): <45 µg·min/mL
AUC ([1]; Drug 1, time 120 min): <60 µg·min/mL
AUC ([1]; Drug 1, time 1200 min): <600 µg·min/mL
MDC90 ([1]; maximum concentration of Drug 1 in solution during the first 90 minutes): <0.5 µg/mL
Drug 1 Concentration ([1]; time 0 min): <0.5 µg/mL
Drug 1 Concentration ([1]; time 1 min): <0.5 µg/mL
Drug 1 Concentration ([1]; time 3 min): <0.5 µg/mL
Drug 1 Concentration ([1]; time 5 min): <0.5 µg/mL
Drug 1 Concentration ([1]; time 10 min): <0.5 µg/mL
Drug 1 Concentration ([1]; time 15 min): <0.5 µg/mL
Drug 1 Concentration ([1]; time 20 min): <0.5 µg/mL
Drug 1 Concentration ([1]; time 30 min): <0.5 µg/mL
Drug 1 Concentration ([1]; time 45 min): <0.5 µg/mL
Drug 1 Concentration ([1]; time 60 min): <0.5 µg/mL
Drug 1 Concentration ([1]; time 90 min): <0.5 µg/mL
Drug 1 Concentration ([1]; time 120 min): <0.5 µg/mL
Drug 1 Concentration ([1]; time 1200 min): <0.5 µg/mL
SMILES: CCOC(=O)N1c2ccc(C(F)(F)F)cc2[C@@H](N(Cc2cc(C(F)(F)F)cc(C(F)(F)F)c2)C(=O)OC)C[C@H]1CC [Control 3, [2R,4S] 4-[(3,5-bis-trifluoromethyl-benzyl)-methoxycarbonyl-amino]-2-ethyl-6-trifluoromethyl-3,4-dihydro-2H-quinoline-1-carboxylic acid ethyl ester]

AUC90 ([2]; Drug 2, area under the aqueous concentration versus time curve after 90 minutes): <45 µg·min/mL
AUC ([2]; Drug 2, time 0 min): 0 µg·min/mL
AUC ([2]; Drug 2, time 1 min): <1 µg·min/mL
AUC ([2]; Drug 2, time 2 min): <1 µg·min/mL
AUC ([2]; Drug 2, time 3 min): <2 µg·min/mL
AUC ([2]; Drug 2, time 5 min): <3 µg·min/mL
AUC ([2]; Drug 2, time 10 min): <5 µg·min/mL
AUC ([2]; Drug 2, time 15 min): <8 µg·min/mL
AUC ([2]; Drug 2, time 20 min): <10 µg·min/mL
AUC ([2]; Drug 2, time 30 min): <15 µg·min/mL
AUC ([2]; Drug 2, time 45 min): <23 µg·min/mL
AUC ([2]; Drug 2, time 64 min): <32 µg·min/mL
AUC ([2]; Drug 2, time 90 min): <45 µg·min/mL
AUC ([2]; Drug 2, time 160 min): <80 µg·min/mL
AUC ([2]; Drug 2, time 1200 min): <600 µg·min/mL
MDC90 ([2]; maximum concentration of Drug 2 in solution during the first 90 minutes): <0.5 µg/mL
Drug 2 Concentration ([2]; time 0 min): <0.5 µg/mL
Drug 2 Concentration ([2]; time 1 min): <0.5 µg/mL
Drug 2 Concentration ([2]; time 2 min): <0.5 µg/mL
Drug 2 Concentration ([2]; time 3 min): <0.5 µg/mL
Drug 2 Concentration ([2]; time 5 min): <0.5 µg/mL
Drug 2 Concentration ([2]; time 10 min): <0.5 µg/mL
Drug 2 Concentration ([2]; time 15 min): <0.5 µg/mL
Drug 2 Concentration ([2]; time 20 min): <0.5 µg/mL
Drug 2 Concentration ([2]; time 30 min): <0.5 µg/mL
Drug 2 Concentration ([2]; time 45 min): <0.5 µg/mL
Drug 2 Concentration ([2]; time 64 min): <0.5 µg/mL
Drug 2 Concentration ([2]; time 90 min): <0.5 µg/mL
Drug 2 Concentration ([2]; time 160 min): <0.5 µg/mL
Drug 2 Concentration ([2]; time 1200 min): <0.5 µg/mL
SMILES: CC[C@@H]1C[C@H](N(Cc2cc(C(F)(F)F)cc(C(F)(F)F)c2)C(=O)OC)c2cc(C(F)(F)F)ccc2N1C(=O)OC(C)C [Control 7, [2R,4S] 4-[(3,5-bis-trifluoromethyl-benzyl)-methoxycarbonyl-amino]-2-ethyl-6-trifluoromethyl-3,4-dihydro-2H-quinoline-1-carboxylic acid isopropyl ester]

AUC90 ([3]; Drug 3, area under the aqueous concentration versus time curve after 90 minutes): <90 µg·min/mL
AUC ([3]; Drug 3, time 0 min): <1 µg·min/mL
AUC ([3]; Drug 3, time 5 min): <5 µg·min/mL
AUC ([3]; Drug 3, time 10 min): <10 µg·min/mL
AUC ([3]; Drug 3, time 20 min): <20 µg·min/mL
AUC ([3]; Drug 3, time 40 min): <40 µg·min/mL
AUC ([3]; Drug 3, time 90 min): <90 µg·min/mL
AUC ([3]; Drug 3, time 1260 min): <1260 µg·min/mL
MDC90 ([3]; maximum concentration of Drug 3 in solution during the first 90 minutes): <1 µg/mL
Drug 3 Concentration ([3]; time 0 min): <1 µg/mL
Drug 3 Concentration ([3]; time 5 min): <1 µg/mL
Drug 3 Concentration ([3]; time 10 min): <1 µg/mL
Drug 3 Concentration ([3]; time 20 min): <1 µg/mL
Drug 3 Concentration ([3]; time 40 min): <1 µg/mL
Drug 3 Concentration ([3]; time 90 min): <1 µg/mL
Drug 3 Concentration ([3]; time 1260 min): <1 µg/mL
SMILES: O=C1Cc2cc(CCN3CCN(c4nsc5ccccc45)CC3)c(Cl)cc2N1 [Control 10]
